B1: RANKL: Receptor-activator of nuclear factor kappa-β ligand, Peprotech (protein, UniProt O14788 140-317, looked up)
Tumor necrosis factor ligand …: IRAEKAMVDGSWLDLAKRSKLEAQPFAHLTINATDIPSGSHKVSLSSWYHDRGWAKISNMTFSNGKLIVNQDGFYYLYANICFRHHETSGDLATEYLQLMVYVTKTSIKIPSSHTLMKGGSTKYWSGNSEFHFYSINVGGFFKLRSGEEISIEVSNPSLLDPDQDATYFGAFKVRDID

Experiments:
[1] = test system: Gpr55 mRNA in RAW264.7 cells; assay: Modulation of Gpr55 mRNA levels by receptor ligands in RANKL-treated RAW264.7 cells; assay type: cell-based, murine; settings: 72 h; for Gpr55 mRNA levels (fold non-differentiated): alone or + 1 μM soybean LPI, 0.5 μM ML-191, 0.5 μM CBD or 30 μM O1918, means ± SEM of at least three independent experiments
Protocol: (§1) Total RNA was extracted using RNeasy isolation kits, cDNAs were obtained using QuantiTect Reverse Transcription kits, and real-time PCRs were performed with QuantiTect SYBR Green PCR kits (all from Qiagen, Hilden, Germany), according to the manufacturer instructions. The primers used for the real-time PCRs and their annealing temperatures are listed in the Additional file 1: Table S1. Human hypoxanthine phosphoribosyltransferase 1 (HPRT1) or murine β2-microglobulin were followed as housekeeping genes. The real-time PCR programme consisted of an initial 15 min at 95 °C, and then 45 cycles as follows: 94 °C for 15 s, annealing temperature of each primer for 30 s, and 72 °C for 30 s. The real-time PCR machine used was a LightCycler 480 Instrument II (Roche, Indianapolis, IN, USA).
(§2) For the osteoclastogenesis in-vitro assay, RAW264.7 cells were plated in differentiation medium (α-MEM with 10% heat-inactivated FBS, 2 mM L-glutamine, 100 U/mL penicillin, and 100 ug/mL streptomycin) at a density of 5 × 10^3 cells/well in 24-well plates on coverslips for morphological analysis, or at 2 × 10^4 cells/well in six-well plates for RNA extraction. Twenty-four hours later and every 48 h, the medium was replaced and the cells were treated with 15–30 ng/mL RANKL with DMSO and/or PBS as carriers, or with GPR55 antagonists/ agonists (0.5 µM ML-191, 30 µM O1918, 0.5 µM CBD, 0.5 μM CID16020046 1 µM soybean LPI, 1 μM ML-184), or with the peptides (150 nM peptide-P1; or the irrelevant peptide, Irr_P). Twenty-four hours after the last addition, the cells were fixed with 4% paraformaldehyde for morphological analyses or harvested for RNA extraction (see above).

[2] = test system: RAW264.7 cells; assay: RANKL-induced transcription of osteoclastogenesis markers in RAW264.7 cells (real-time PCR); assay type: cell-based, murine; settings: 72 h; for effect on RANKL-induced Mmp-9 mRNA: 0.5 µM CBD
Protocol: as §1
For transient interference of Gpr55, RAW264.7 cells were plated at 6 × 10^5 cells/well in six-well plates in growth medium without antibiotics. Twenty-four hours later, the cells were transfected with 250 pmol/well non-targeting small-interfering (si)RNAs (si-NT; siGENOME siRNA Pool #2; D-001206-14; Dharmacon, Chicago, IL, USA) or Gpr55-specific siRNAs (si-GPR55; siGENOME mouse GPR55 SMART pool; M-043590-01; Dharmacon) using Lipofectamine LTX and Plus Reagent, according to the manufacturer instructions. Twenty-four hours later, the cells were plated for the different assays or for RNA extraction. The efficiency of interference was monitored by real-time PCR after 72 h of interference, using the primers listed in the Additional file 1: Table S1. β2-microglobulin was followed as a housekeeping gene.
as §2

[3] = test system: endogenous GPR55 (HeLa); assay: LPI-induced ERK/p38 phosphorylation in shCTRL-HeLa clones (Western blot); assay type: cell-based, human; settings: for inhibition of LPI stimulation of both ERK2 and p38 phosphorylation at 5 min / inhibition of LPI-induced stimulation of ERK1/2: 30 µM ML-191, 10 µM CBD or 10 µM O1918
Protocol: For stable interference of GPR55, HeLa cells were plated at 1.5 × 10^5 cells/well in six-well plates in growth medium without antibiotics, and 24 h later, the cells were transfected with 1.7 µg/well OmicsLink short hairpin (sh)RNA expression clone CSHCTR001-CU6 (shCTRL) or clone HSH022476-3-CU6 (shGPR55) from GeneCopoeia (Rockville, MD, USA), using Lipofectamine 2000, according the manufacturer instructions. Forty-eight hours after transfection, HeLa clones stably expressing shRNAs were selected in growth medium containing 0.3 µg/mL puromycin. The efficiency of interference was monitored by real-time PCR using the primers listed in the Additional file 1: Table S1. HPRT1 was followed as a housekeeping gene.
Twenty-four hours after transfection (HEK293T, HeLa cells or clones) or 72 h after interference (RAW264.7 cells), the cells were washed twice with HBSS^++, serum deprived (HEK293T cells for 4 h in DMEM; HeLa cells and clones for 2 h in MEM plus 2 mM glutamine and 25 mM HEPES; RAW264.7 cells for 2 h in DMEM), washed once again with HBSS^++, incubated in stimulation buffer (HBSS^++ with 10 mM HEPES, 0.4% faf-BSA for HEK293T cells; HBSS^++ with 25 mM HEPES and 0.01% faf-BSA for HeLa cells, clones, and RAW264.7 cells) in the absence or presence of stimuli, at 37 °C for the indicated times. Incubations were terminated by washing the cells twice with cold HBSS^++, and the analyses were performed as reported below.
Cell lysates were obtained by scraping the cells into phospho-lysis buffer: 50 mM Tris–HCl, pH 7.5, 100 mM NaCl, 5 mM EDTA, 1% Triton X-100, 50 mM NaF, 40 mM β-glycerophosphate, 200 µM sodium orthovanadate, plus protease and phosphatase inhibitors (Roche). Following gentle homogenisation by 20 passages through a 26-gauge needle, the lysates were centrifuged at 10,000×g for 5 min at 4 °C, and the supernatants were collected.
Protein lysates were subjected to SDS-PAGE, and after electrophoresis, the proteins were transferred to a nitrocellulose membrane (PerkinElmer Life Science, Boston, MA, USA). For immunoblotting, the membranes were blocked with 5% non-fat milk in TBS (10 mM Tris–HCl, pH 7.4, 10 mM NaCl) plus 0.1% Tween-20 (T-TBS) for 30 min at room temperature, and incubated with primary antibodies in T-TBS plus 3% BSA for 2 h at room temperature, or overnight at 4 °C. The membranes were washed twice in T-TBS for 7 min, and then incubated with secondary antibodies conjugated to horseradish peroxidase (1:5,000) (Calbiochem, San Diego, CA, USA) in T-TBS with 5% non-fat milk for 30 min at room temperature. The membranes were then washed twice with T-TBS and once with TBS for 5 min, and the signals were detected by ECL (Amersham Pharmacia, Piscataway, NJ, USA). The rabbit anti-phospho AKT (Ser473), anti-phospho p38 (Thr180/Tyr182), anti-phospho p42/44 (Thr202/Tyr204), anti-p38 (all at dilution 1:1000) were from Cell Signaling Technology (Danvers, MA, USA). The rabbit anti-AKT (B-1), and anti-p42/44 (ERK1; K-23) were from Santa Cruz Biotechnology.

[4] = test system: HA-GPR55 in HEK293T cells; assay: LPI-induced ERK1/2 activation in GPR55-transfected HEK293T cells; assay type: cell-based, human; settings: soybean or synthetic LPI, 100 nM to 10 µM, 3–30 min; different transfection methods
Source text: The construct of haemagglutinin (HA)-tagged human GPR55 in pcDNA3 (HA-GPR55) was a gift from Prof. K. Mackie, Indiana University, Bloomington, IN, USA [39], while the construct ss-3 × HA-GPR55 in pcDNA3.1 (ssGPR55) with a triple HA tag at the N-terminus and an optimised signal sequence (ss, derived from amino acids 1–33 of the human growth hormone: […]) for efficient surface expression was from Prof. A. Irving, Dundee University, UK [40]. For both constructs, mutations were introduced by site-directed mutagenesis using QuickChange kits (Stratagene, La Jolla, CA, USA), according to the manufacturer instructions. The primers for the K80A mutation were 5′-[…]-3′ and 5′-[…]-3′ (Tm, 70.6 °C), and for Q87A were 5′-[…]-3′ and 5′-[…]-3′ (Tm, 73.1 °C).
For GPR55 overexpression, HEK293T cells were plated in their growth medium without antibiotics at 2.6 × 10^5 cells/well in 12-well plates, and 24 h later, the cells were transfected with 1 µg cDNA/well using Lipofectamine 2000, according to the manufacturer instructions. The pcDNA3 empty vector or that coding for human HA-GPR55 wild-type or its mutants HA-GPR55-K80A and HA-GPR55-Q87A were used.
Twenty-four hours after transfection (HEK293T, HeLa cells or clones) or 72 h after interference (RAW264.7 cells), the cells were washed twice with HBSS^++, serum deprived (HEK293T cells for 4 h in DMEM; HeLa cells and clones for 2 h in MEM plus 2 mM glutamine and 25 mM HEPES; RAW264.7 cells for 2 h in DMEM), washed once again with HBSS^++, incubated in stimulation buffer (HBSS^++ with 10 mM HEPES, 0.4% faf-BSA for HEK293T cells; HBSS^++ with 25 mM HEPES and 0.01% faf-BSA for HeLa cells, clones, and RAW264.7 cells) in the absence or presence of stimuli, at 37 °C for the indicated times. […]
Protein lysates were subjected to SDS-PAGE, and after electrophoresis, the proteins were transferred to a nitrocellulose membrane (PerkinElmer Life Science, Boston, MA, USA). […] The membranes were then washed twice with T-TBS and once with TBS for 5 min, and the signals were detected by ECL (Amersham Pharmacia, Piscataway, NJ, USA). […]

[5] = test system: osteoclasts derived from RAW264.7 cells; assay: Osteoclast functional assay (bone resorption on bovine cortical bone slices); assay type: cell-based, murine; settings: 15 ng/mL RANKL, 7 days; at least three independent experiments
Protocol: RAW264.7 cells were plated in differentiation medium at a density of 1250 cells/100 µL on 0.2-mm-thick bovine cortical bone slices (BoneSlices.com, Jelling, Denmark) in 96-well plates. Six hours later, 100 µL differentiation medium with RANKL (15 ng/mL, final concentration) was added, in the presence of a carrier or in combination with the GPR55 modulators. The media with the different compounds were replaced every 48 h, for a total of 7 days. At the end of this period, the cells were detached with a 10% bleach solution, and the resorption excavations were visualised by using Toluidine Blue staining (Sigma-Aldrich). Images of the resorption areas were obtained under the microscope (SW380T; Swift Optical Instruments, Inc., TX, USA) using the 10 × objective, and acquired with a digital camera (Swiftcam SC1003; Swift Optical Instruments, Inc.). The total eroded surface underwent blinded quantification using ImageJ (NIH), and was subdivided into pit and trench surfaces. Pits were characterised as round excavations with well-defined edges where the ratio between length and width was < 2.0. Trenches were defined as elongated excavations with well-defined edges whose length was at least twice the wide, and with clear signs of continued resorption. The prevalence of trenches was calculated as a proportion (%) of the trench surface relative to the total eroded surface.

[6] = 15–30 ng/mL RANKL, 0.5 µM ML-191, 0.5 µM CBD, 30 µM O1918, four independent experiments
[7] = 10 µM soybean LPI, 10 min, 10 µM CBD or 30 µM ML-191, relative to CBD or ML-191 basal level
[8] = 30 ng/mL RANKL, mean ± range of two independent experiments

| Molecule | Gpr55 mRNA levels (fold non-differentiated) ([1]; 30 ng/mL RANKL) | effect on RANKL-induced Mmp-9 mRNA ([2]; 15–30 ng/mL RANKL, 30 µM O1918) | effect on RANKL-induced Ctr mRNA [2, 6] | reduction of RANKL-induced Nfatc1 mRNA [2, 6] | reduction of RANKL-induced Trap mRNA [2, 6] | inhibition of LPI stimulation of both ERK2 and p38 phosphorylation at 5 min ([3]; 10 µM soybean LPI) | inhibition of LPI-induced stimulation of ERK1/2 ([3]; 10 µM soybean LPI) | also measured |
| --- | --- | --- | --- | --- | --- | --- | --- | --- |
| C=C(C)[C@@H]1CCC(C)=C[C@H]1c1c(O)cc(CCCCC)cc1O [CBD, Cannabidiol] | 27.7 ± 0.5 fold non-differentiated | not affected | not affected | 40% | 50% | inhibited LPI stimulation of both ERK2 and p38 phosphorylation at 5 min | strongly inhibited | further enhancement of RANKL-stimulated Gpr55 mRNA levels ([1]; 0.5 μM ML-191, 0.5 μM CBD, 1 μM soybean LPI, versus RANKL alone): 0.7 -fold; reduction of RANKL-induced Cathepsin-k mRNA [2, 6]: 44%; ERK2 phosphorylation upon LPI stimulation in presence of antagonist [3, 7]: 3.3 -fold the antagonist basal lev; p38 phosphorylation upon LPI stimulation in presence of antagonist [3, 7]: 1.5 -fold the antagonist basal lev |
| Cc1cccc(N2CCN(C(=O)c3cc(S(=O)(=O)N(C)C)ccc3N3CCCC3)CC2)c1C [ML-184] |  |  |  |  |  |  |  | RANKL-induced transcription of Ctr, si-NT versus si-GPR55 cells ([2]; RANKL 15 ng/mL, 1 µM soybean LPI or 1 µM ML-184): similarly increased RANKL-induced transcription of Ctr only in precursor cells treated with non-targeting siRNAs, and not in those silenced for GPR55 |
| C=C(C)[C@@H]1CCC(C)=C[C@H]1c1c(OC)cc(C)cc1OC [O1918] | 15.8 ± 3.1 fold non-differentiated | not affected | not affected | 40% | 40% | inhibited LPI stimulation of both ERK2 and p38 phosphorylation at 5 min | abolished | effect on RANKL-stimulated Gpr55 mRNA levels ([1]; 30 μM O1918): did not show any effects; effect on RANKL-induced Cathepsin-k mRNA ([2]; 15–30 ng/mL RANKL, 30 µM O1918): not affected; basal ERK2 activation level (without LPI) ([3]; 30 µM ML-191 or 10 µM O1918): significantly increased basal activation levels |
| L-α-lysophosphatidylinositol sodium salt from soybean [soybean LPI] | 24.5 ± 2.1 fold non-differentiated |  |  |  |  |  |  | ERK1/2 activation in GPR55-transfected compared to empty-vector-transfected cells [4]: inconsistent ERK1/2 activation |
| B1 | 16.1 ± 1.6 fold non-differentiated |  |  |  |  |  |  | trench surface relative to total eroded surface [5]: 42 ± 8 % of total eroded surface; Gpr55 mRNA increase ([1]; 30 ng/mL RANKL, three independent experiments): 14 -fold; Cathepsin-k mRNA increase versus undifferentiated cells [2, 8]: 468.5 (±24.3) -fold; Mmp-9 mRNA increase versus undifferentiated cells [2, 8]: 673.3 (±4.7) -fold; Nfatc1 mRNA increase versus undifferentiated cells [2, 8]: 11.9 (±2.2) -fold; Trap mRNA increase versus undifferentiated cells [2, 8]: 188.8 (±57.6) -fold |

— paper PMC8073907, “Peptide targeting of lysophosphatidylinositol-sensing GPR55 for osteoclastogenesis tuning” (Cell Communication and Signaling : CCS, 2021)
